Experimental data reported in US20230124862A1, “BISMUTH THIOL COMPOUNDS AND COMPOSITIONS AND METHODS OF TREATING MICROBIAL CO-INFECTIONS” (Microbion Corporation, priority 2020, published 2023).
Converted amounts (≈) assume the structure as drawn.

Key:
N. gonorrhoeae = N. gonorrhoeae MMX 683 (ATCC 49226); cited from earlier work
E. coli ATCC 25922 = test: Broth microdilution MIC (Example 16); conditions: Escherichia coli
[1] = test system: protein synthesis in E. coli ATCC 25922; conditions: 8X the MIC
[2] = test system: cell wall synthesis in E. coli ATCC 25922; conditions: 8X the MIC
[3] = test system: Gram-positive organisms (S. aureus, S. pneumoniae); test: Broth microdilution MIC with pulmonary surfactant (Survanta); format: cell-based, Staphylococcus aureus, Streptococcus pneumoniae
[4] = ATCC25922, E. coli ATCC 25922, inoculum 1
[5] = ATCC25922, E. coli ATCC 25922, inoculum 2

Row | Compound | CLSI QC range of MIC (N. gonorrhoeae) | MIC (E. coli ATCC 25922; ATCC25922) [µg/mL] | MIC (E. coli ATCC 25922; [4]) [µg/mL] | MIC (E. coli ATCC 25922; [5]) [µg/mL] | inhibition of protein synthesis [1] [%] | inhibition of cell wall synthesis [2] [%] | MIC ([3]; S. pneumoniae ATCC 49619, 0 percent Survanta) [µg/mL] | MIC ([3]; S. pneumoniae ATCC 49619, 1 percent Survanta) [µg/mL] | MIC ([3]; S. pneumoniae ATCC 49619, 2.5 percent Survanta) [µg/mL] | MIC ([3]; S. pneumoniae MMX 3162, 0 percent Survanta) [µg/mL] | MIC ([3]; S. pneumoniae MMX 3162, 1 percent Survanta) [µg/mL] | MIC ([3]; S. pneumoniae MMX 3162, 2.5 percent Survanta) [µg/mL] | MIC ([3]; S. pneumoniae MMX 3162, 5 percent Survanta) [µg/mL] | MIC ([3]; Staphylococcus aureus, ATCC29213, S. aureus ATCC 29213, 0 percent Survanta) [µg/mL] | MIC ([3]; Staphylococcus aureus, ATCC29213, S. aureus ATCC 29213, 1 percent Survanta) [µg/mL] | MIC ([3]; Staphylococcus aureus, ATCC29213, S. aureus ATCC 29213, 2.5 percent Survanta) [µg/mL] | MIC ([3]; Staphylococcus aureus, ATCC29213, S. aureus ATCC 29213, 5 percent Survanta) [µg/mL] | MIC ([3]; Staphylococcus aureus, ATCC29213, S. aureus ATCC 29213, 10 percent Survanta) [µg/mL] | MIC ([3]; Staphylococcus aureus, ATCC43300, S. aureus ATCC 43300, 0 percent Survanta) [µg/mL]
1 | CO/N=C(\C(=O)N[C@@H]1C(=O)N2C(C(=O)O)=C(CSc3nc(=O)c(=O)[nH]n3C)CS[C@H]12)c1csc(N)n1 [Ceftriaxone] | (0.004-0.015) μg/mL | – | – | – | – | – | – | – | – | – | – | – | – | – | – | – | – | – | –
2 | CN(C)[C@@H]1C(O)=C(C(N)=O)C(=O)[C@@]2(O)C(O)=C3C(=O)c4c(O)cccc4[C@@](C)(O)[C@H]3C[C@@H]12 [tetracycline] | – | 1 (≈ 2.25 µM) | 1 (≈ 2.25 µM) | 1 (≈ 2.25 µM) | 93.8 | – | – | – | – | – | – | – | – | – | – | – | – | – | –
3 | C[C@@H](O)[C@H]1C(=O)N2C(C(=O)O)=C(SCCN=CN)C[C@H]12 [imipenem] | – | 0.12 (≈ 0.401 µM) | 0.12 (≈ 0.401 µM) | 0.12 (≈ 0.401 µM) | – | 78.8 | ≤ 0.015 | 0.03 (≈ 0.1 µM) | 0.03 (≈ 0.1 µM) | 0.25 (≈ 0.835 µM) | 0.25 (≈ 0.835 µM) | 0.25 (≈ 0.835 µM) | 0.25 (≈ 0.835 µM) | ≤ 0.015 | ≤ 0.015 | ≤ 0.015 | ≤ 0.015 | ≤ 0.015 | 0.5 (≈ 1.67 µM)
